The test system of one test is Aβ1-40 (H4-APPsw). The test is described as follows: Aβ1-40 time-resolved fluorescence immunoassay in H4-APPsw cell cultures. The format is cell-based, human. Particulars: for IC50: Homo sapiens, H4-APPsw cultures treated overnight. Here is the method:
H4-APPsw cell cultures were maintained on Dulbecco's modified Eagle's medium (DMEM) supplemented with L-glutamine (2 mM), fetal bovine serum (10%), and G418 (100 μg/mL). […] Aβ1-42 and Aβ1-40 assays, and Notch inhibition assays, were carried out as described previously. Mouse embryonic fibroblasts deficient in PS1 and PS2 (MEF dKO) were passaged twice per week in DMEM/F-12 medium, consisting of a 1 : 1 mixture of DMEM and F-12 nutrient mixture supplemented with 10% fetal bovine serum, penicillin, and streptomycin. For expression of human presenilin-1 in MEF dKO cells, the full length human presenilin-1 cDNA open reading frame was cloned between the BamHI and XhoI sites of the vector pcDNA5/FRT (Invitrogen), placing presenilin-1 expression under the control of the CMV promoter. The M146V mutated allele was introduced into the presenilin-1 expression construct by polymerase chain reaction using the oligonucleotide primers 5′-[…]-3′ and 5′-[…]-3 (QuikChange kit, Invitrogen). MEF dKO cultures were cotransfected with DNA constructs expressing APP-CTF, encoding the C-terminal 99 amino acids of APP [61] and either the human presenilin-1 or presenilin-1 M146V allele. Transfected cultures were incubated overnight at 37°C in 5% CO2 atmosphere and then harvested, resuspended in DMEM/F-12 medium, dispensed into 96-well culture plates, and incubated for 6 hours at 37°C in 5% CO2 atmosphere. Culture medium was then replaced with Ultraculture serum free medium (Lonza, Rockland, ME) with or without compounds at a range of concentrations and incubated overnight.
IC50 determinations for Aβ1-42 and Aβ1-40 in H4-APPsw cultures in 384-well format were determined using homogeneous time-resolved fluorescence immunoassays as previously described. The principle of these assays is illustrated in Figures 1(c) and 1(d). In other experiments using H4-APPsw cultures, Aβ was quantified by ELISA; for Aβ1-42 the combination of monoclonal antibodies was 26D6 and 565-HRP; for Aβ1-40 it was TSD and 26D6-HRP, and for Aβ1-x it was 4G8 and 26D6-HRP. In some experiments a novel 4-plex Aβ electrochemiluminescence immunoassay was used (Mesoscale Discovery catalog number N45ZA-1). Briefly, the 4-plex was carried out in 96-well format, with 4 separate spots of capture antibodies in each well. […] For Aβ in transiently transfected PS1/PS2 dKO fibroblasts, Aβ1-42 was quantified using an ELISA kit (WACO), and Aβ1-40 was quantified by ELISA as described above for H4-APPsw cultures. […] For the rat and mouse experiments illustrated in Figures 7 and 8, brain samples were prepared by solid phase extraction, and endogenous rat brain Aβ1-42 and Aβ1-40 were quantified by ELISA as previously described for wild type mice. […]

The test system of the next test is APP-CTF (H4-APPsw). The test is described as follows: Western blot of APP-CTFα and APP-CTFβ in H4-APPsw cell lysates. In kind it is cell-based, human. The note with it: overnight; for increase in APP-CTFα: BMS-869780 100-3000 nM averaged across doses, BMS-299897 30-300 nM; for APP-CTFβ levels: high concentrations. The protocol:
For western blotting of APP-CTF in cell lysates, H4-APPsw cell cultures in T-75 flasks were rinsed with DPBS, harvested, isolated by centrifugation, and stored at −80°C until needed. Cells were suspended in SDS sample buffer (20,000 cells/μL), boiled for 10 min, and centrifuged 3000 ×g for 5 min. Total protein content was determined using an assay kit (EZQ, Invitrogen cat number R33200). Proteins were separated by electrophoresis on Bis-Tris 16% polyacrylamide gels and transferred to nitrocellulose filters. APP-CTFβ was detected using 26D6-HRP, and APP-CTFα was detected using ct695 polyclonal (Invitrogen, cat number 51-2700) and secondary goat anti-rabbit horseradish peroxidase conjugate (Zymed, catalog number 62-6120). Chemiluminescence images were captured and quantified using an imaging station (Fuji model number LAS-3000). The ct695 western blots also show APP-CTFβ, which migrates as a fainter band above APP-CTFα under these conditions. To confirm the consistency of sample loading, the APP-CTF western blots were reprobed for glyceraldehyde-3-phosphate dehydrogenase (GAPDH) using monoclonal 1D4 (Enzo Life Sciences, cat number CSA-335).
Figure 4 BMS-869780 had minimal effect on APP-CTF accumulation in vitro. H4-APPsw cell cultures were treated overnight with the indicated concentrations of BMS-869780, BMS-299897 or vehicle (0.1% DMSO). (a) Cells were harvested and analyzed by western blotting for APP-CTFα, APP-CTFβ, and GAPDH. Lane 1; culture treated with vehicle 0.1% DMSO. Lanes 2–5; cultures treated with BMS-869780 at 100 nM, 300 nM, 1000 nM, or 3000 nM, respectively. Lanes 6–8; cultures treated with BMS-299897 at 30 nM, 100 nM, or 300 nM, respectively. (b) Levels of Aβ1-42 (red; left Y-axis), Aβ1-40 (green; right Y-axis), and Aβ1-x (grey; right Y-axis) were quantified.
Background: A western blot detects proteins with antibodies after separation by electrophoresis.

Results on two compounds are retold here after PMC4109680, “Identification and Preclinical Pharmacology of the γ-Secretase Modulator BMS-869780” (International Journal of Alzheimer's Disease, 2014).

As a reminder, the IC50 is the point on the concentration scale where inhibition reaches its midpoint.

`C[C@H](c1ccc(F)cc1CCCC(=O)O)N(c1cc(F)ccc1F)S(=O)(=O)c1ccc(Cl)cc1` [BMS-299897, reference compound]: in the test with Aβ1-40 (H4-APPsw), the IC50 stood at 1.3 nM. Moreover, in the test on APP-CTF (H4-APPsw), the “increase in APP-CTFα” value was 8 fold and the APP-CTFβ levels entry is recorded as “not affected”.
As for `COc1cc(Nc2nc3n(n2)CCCC[C@H]3c2ccc(F)cc2)ccc1-n1cnc(Cl)c1` [BMS-869780], the “shift in IC50 values between Aβ1-42 and Aβ1-40” value with Aβ1-40 (H4-APPsw) (H4-APPsw) is on record as 4 fold. In addition, the IC50 in the test with Aβ1-40 (H4-APPsw) was found to be 24.1 nM. Moreover, in the test with APP-CTF (H4-APPsw), the “increase in APP-CTFα” value came out at 1.4 fold and the APP-CTFβ levels entry is listed as “not affected”.
